Data taken from ChEMBL document CHEMBL2177099, “Discovery of 1-[4-(N-benzylamino)phenyl]-3-phenylurea derivatives as non-peptidic selective SUMO-sentrin specific protease (SENP)1 inhibitors” (Bioorg Med Chem Lett, 2012).
Active and inactive are the calls of the source. The rule behind the calls is not given here.

Tests used:
HeLa [1] = conditions: Homo sapiens, 3 uM
Description: Inhibition of hypoxia-induced HIF1alpha accumulation in human HeLa cells at 3 uM after 6 hrs by Western blot analysis

HeLa [2] = assay: Inhibition of hypoxia-induced HIF1alpha accumulation in human HeLa cells after 6 hrs by Western blot analysis; assay type: functional, cell-based
[3] = target: T1, Thermolysin (Bacillus thermoproteolyticus) (UniProt P00800); assay: Inhibition of Bacillus thermoproteolyticus rokko thermolysin using FITC-Casein substrate at 10 to 100 uM by fluorescence assay
T1 sequence (whole entry): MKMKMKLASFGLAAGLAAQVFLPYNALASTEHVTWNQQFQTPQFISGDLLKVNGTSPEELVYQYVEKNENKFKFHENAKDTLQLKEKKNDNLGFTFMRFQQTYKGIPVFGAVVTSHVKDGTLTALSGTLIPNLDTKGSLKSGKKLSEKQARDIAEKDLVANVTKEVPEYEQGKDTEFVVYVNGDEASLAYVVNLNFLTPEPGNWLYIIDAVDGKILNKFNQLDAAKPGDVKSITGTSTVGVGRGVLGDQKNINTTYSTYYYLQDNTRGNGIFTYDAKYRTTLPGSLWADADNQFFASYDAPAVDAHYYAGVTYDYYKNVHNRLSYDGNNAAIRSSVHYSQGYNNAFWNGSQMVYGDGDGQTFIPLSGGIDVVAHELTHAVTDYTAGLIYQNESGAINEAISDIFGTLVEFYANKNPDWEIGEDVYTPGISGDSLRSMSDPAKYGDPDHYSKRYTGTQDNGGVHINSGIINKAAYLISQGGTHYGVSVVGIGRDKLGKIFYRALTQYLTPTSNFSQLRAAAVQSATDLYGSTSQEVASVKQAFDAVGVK

Bos taurus [4] = organism: Bos taurus; assay: Inhibition of bovine pancreatic trypsin using FITC-Casein substrate at 10 to 100 uM by fluorescence assay
[5] = target: T2, Sentrin-specific protease 2 (Homo sapiens) (UniProt Q9HC62); assay: Inhibition of recombinant human SENP2 catalytic domain assessed as release of fluorescent AMC from SUMO-1-AMC preincubated at 10 to 100 uM for 10 mins before substrate addition by fluorescence assay
T2 sequence (whole entry): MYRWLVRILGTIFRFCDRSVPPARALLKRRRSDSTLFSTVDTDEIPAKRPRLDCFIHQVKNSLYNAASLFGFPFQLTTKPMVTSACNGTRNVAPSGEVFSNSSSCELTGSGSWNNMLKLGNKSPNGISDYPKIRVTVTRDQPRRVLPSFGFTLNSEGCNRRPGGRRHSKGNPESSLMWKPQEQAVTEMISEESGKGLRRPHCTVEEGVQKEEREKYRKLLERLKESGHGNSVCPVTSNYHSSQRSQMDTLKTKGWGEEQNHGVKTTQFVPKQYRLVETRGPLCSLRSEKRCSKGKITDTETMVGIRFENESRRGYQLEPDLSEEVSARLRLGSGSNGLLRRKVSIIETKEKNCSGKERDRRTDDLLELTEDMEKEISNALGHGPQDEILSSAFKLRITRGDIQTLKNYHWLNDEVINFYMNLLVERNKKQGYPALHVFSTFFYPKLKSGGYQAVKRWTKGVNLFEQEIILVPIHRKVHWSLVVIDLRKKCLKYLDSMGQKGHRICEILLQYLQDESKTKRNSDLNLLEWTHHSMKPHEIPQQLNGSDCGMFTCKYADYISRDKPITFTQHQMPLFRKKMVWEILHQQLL

Bos taurus [6] = organism: Bos taurus; assay: Inhibition of bovine pancreatic chymotrypsin using FITC-Casein substrate at 10 to 100 uM by fluorescence assay

| Compound | inhibition (HeLa [1]) | inhibition (HeLa [2]) | inhibition [3] | inhibition (Bos taurus [4]) | inhibition [5] | inhibition (Bos taurus [6]) |
| --- | --- | --- | --- | --- | --- | --- |
| COC(=O)c1cccc(CNc2ccc(N(C)C(=O)Nc3ccccc3)cc2)c1 | Active | Dose-dependent effect | – | – | – | – |
| CCOC(=O)c1cccc(CNc2ccc(N(C)C(=O)Nc3ccccc3)cc2)c1 | – | Dose-dependent effect | inactive | inactive | inactive | inactive |
